Measurements from patent US8227245B2, “Multipotent stem cells from peripheral tissues and uses thereof” (McGill University, priority 2000, dated 2012).

How the values were obtained:
skin-derived MSCs [1] = experiment: Pharmacological agents added to proliferating skin-derived MSCs (morphology, survival); assay type: cell-based, mouse; conditions: plated three days in proliferation medium containing FGF, medium supplemented with agent
Source text: FIG. 10 is a series of photographs showing the effect of various pharmacological agents on mouse skin-derived MSCs.
We tested the ability of pharmacological agents to alter this phenotype.

[2] = test system: skin-derived stem cells harvested from human foreskin; experiment: Culture of human foreskin skin-derived stem cells in presence and absence of LIF; assay type: cell-based; conditions: proliferating non-adherent cultures with EGF and FGF2
Source text: In contrast to human central nervous system derived stem cells, the survival and proliferation of human skin-derived stem cells is not dependent on LIF.
We cultured the cell suspension, as previously described, in non-adherent vessels in the presence of EGF and FGF2. […] The clusters are morphologically indistinguishable from skin-derived stem cells derived from rodent tissue. Skin-derived clusters are loosely compacted, and the cells can be readily dissociated manually without the use of proteases. Such characteristics appear to distinguish skin-derived clusters from CNS-derived neurospheres. […] Furthermore, we have currently passaged and maintained foreskin derived stem cells as proliferating cultures for greater than three months.

skin-derived MSCs [3] = experiment: Endodermal marker expression of skin-derived MSCs by RT-PCR after plating with nicotinamide; assay type: cell-based; conditions: cells dissociated and plated in media supplemented with nicotinamide
Description: Skin-derived MSCs were cultured under standard proliferation conditions in the presence or absence of B-27 supplement. Differentiation was induced by plating cells in the presence of nicotinamide, and the resulting differentiated cells were analyzed by quantitative RT-PCR. […] Although cells proliferated in either the presence or the absence of B27 supplement can be induced to express endodermal markers, cells proliferated in B27 appear to express such markers to a higher degree.
Our recent discovery that MSCs maintain the potential to produce both neural and non-neural cell types has been accompanied by the discovery that non-neural stem cells such as bone marrow-derived stem cells (i.e., stromal cells or mesenchymal stem cells) also have the potential to produce a wide variety of neural and non-neural stem cells (Ferrari et al., Science 279:1528-1530, 1998; Gussoni et al., Nature 401:390-394, 1999; Peterson et al., Science 284:1168-1170, 1999; Pereira et al., Proc. Natl. Acad. Sci. USA 92:4857-4861, 1995; Prockop, Science 276:71-74, 1997; Kessler and Byrne, Annu. Rev. Physiol. 61:219-242, 1999; Pittenger et al., Science 284:143-147). […] After several days of co-culture the skin-derived stem cells were analyzed based on both morphology and on protein expression. […]

skin derived MSCs = experiment: Neuronal differentiation of skin-derived MSCs plated in 5% serum with added agent, anti-neurofilament immunocytochemistry; assay type: cell-based; conditions: 5% serum plus agent, compared with serum alone
Description: Cells were dissociated and plated in the presence of either 5% FBS, 5% FBS+retinoic acid (RA), or 5% FBS+BMP7. Cells were analyzed immunocytochemically for expression of neurofilament M (NFM).
Skin derived MSCs were obtained and cultured as described in detail above. To induce differentiation, cells were plated in the presence of 5% serum supplemented with either retinoic acid or BMP-7. Neuronal differentiation was analyzed using a polyclonal anti-neurofilament antibody.

Molecule: COc1cccc(-c2cc(=O)c3ccccc3o2)c1N [PD098059]
- effect on phenotype of proliferating skin-derived MSCs (skin-derived MSCs [1]): caused proliferating cells to flatten and differentiate

Molecule: LIF: cytokine added to culture medium (R&D Systems)
- proliferation, differentiation or survival characteristics in presence and absence of LIF [2]: no significant differences

Molecule: NC(=O)c1cccnc1 [nicotinamide]
- expression of endodermal markers (GATA-4, HNF3α, Isl1, AFP, HNF3β, Ngn3, Pdx-1, Insulin) (skin-derived MSCs [3]): express markers of endodermal differentiation

Molecule: C[S+]([O-])c1ccc(-c2nc(-c3ccncc3)c(-c3ccc(F)cc3)[nH]2)cc1 (centres unmarked) [SB203580]
- effect on phenotype of proliferating skin-derived MSCs (skin-derived MSCs [1]): no observed effect

B1: BMP-7: therapeutic protein (growth factor) added to 5% serum to induce differentiation (protein, UniProt P18075 293-431, looked up)
Bone morphogenetic protein 7: STGSKQRSQNRSKTPKNQEALRMANVAENSSSDQRQACKKHELYVSFRDLGWQDWIIAPEGYAAYYCEGECAFPLNSYMNATNHAIVQTLVHFINPETVPKPCCAPTQLNAISVLYFDDSSNVILKKYRNMVVRACGCH
- number and complexity of neurofilament positive cells (skin derived MSCs): enhances the number and complexity of neurofilament positive cells
